Patent publication US8288371B2, “Ortho pyrrolidine, benzyl-substituted heterocycle CCR1 antagonists for autoimmune diseases and inflammation” (Pharmacopeia, LLC, priority 2007, dated 2012)

target: T1, human CCR1 (Homo sapiens, UniProt P32246); test: CCR1 binding protocol (SPA, [125I]-MIP-1α displacement); conditions: cell membrane expressing human CCR1, 0.1 nM [125I]-MIP-1α, 4 hours at ambient temperature; read-out: Relative potency (IC50)
T1 sequence (P32246 1-355): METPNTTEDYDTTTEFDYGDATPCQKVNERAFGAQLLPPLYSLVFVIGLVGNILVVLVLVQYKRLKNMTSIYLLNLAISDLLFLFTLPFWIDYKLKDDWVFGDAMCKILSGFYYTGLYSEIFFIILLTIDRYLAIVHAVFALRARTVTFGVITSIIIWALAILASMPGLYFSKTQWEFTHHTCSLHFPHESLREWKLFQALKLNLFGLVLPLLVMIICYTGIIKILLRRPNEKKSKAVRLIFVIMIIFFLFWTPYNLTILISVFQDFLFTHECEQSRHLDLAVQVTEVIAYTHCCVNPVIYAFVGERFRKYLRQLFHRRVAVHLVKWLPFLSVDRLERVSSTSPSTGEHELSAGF
Summary of the method: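 Displacement of 0.1 nM [125I]-MIP-1α (final) from membranes expressing human CCR1 was measured by scintillation proximity after 4 h at ambient temperature. Conditions: pH 7.4 Tris buffer with 0.1% BSA and MnCl, and 0.5 μg membrane per well. Compounds were tested as a 10-step ½-log series from a 10 mM DMSO stock to derive IC50.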

Row | IC50 | SMILES
1 | < 50 nM | Cc1nnc([C@H]2CCCN2C(=O)N[C@H]2CCOc3c(F)cc(F)cc32)n1Cc1ccc(Cl)cc1 [Compound 153]
2 | 50 to 500 nM | Cc1nnc([C@H]2CCCN2C(=O)Nc2ccc(C(F)(F)F)cc2Cl)n1Cc1ccc(Cl)cc1 [Compound 154]
3 | 50 to 500 nM | Cc1nnc([C@H]2CCCN2C(=O)N[C@H]2CCc3ccccc32)n1Cc1ccc(Cl)cc1 [Compound 155]
4 | 50 to 500 nM | Cc1nnc([C@H]2CCCN2C(=O)N[C@H]2CCCOc3ccc(Cl)cc32)n1Cc1ccc(Cl)cc1 [Compound 156]
5 | 50 to 500 nM | Cc1nnc([C@H]2CCCN2C(=O)N[C@H]2CCOc3ccc(F)cc32)n1Cc1ccc(Cl)cc1 [Compound 157]
6 | 50 to 500 nM | Cc1cccc(C)c1NC(=O)N1CCC[C@@H]1c1nnc(C)n1Cc1ccc(Cl)cc1 [Compound 158]
7 | 50 to 500 nM | O=C(N[C@H]1CCCOc2ccc(Cl)cc21)N1CCC[C@@H]1c1nncn1Cc1ccc(Cl)cc1 [Compound 159]
8 | 50 to 500 nM | Cc1nnc([C@H]2CCCN2C(=O)Nc2ccc(Cl)cc2)n1Cc1ccc(Cl)cc1 [Compound 160]
9 | 50 to 500 nM | Cc1nnc([C@H]2CCCN2C(=O)N[C@H]2CCOc3c(F)ccc(F)c32)n1Cc1ccc(Cl)cc1 [Compound 161]
10 | 50 to 500 nM | Cc1nnc([C@H]2CCCN2C(=O)Nc2ccc(Br)cc2)n1Cc1ccc(Cl)cc1 [Compound 162]
11 | 50 to 500 nM | Cc1nnc([C@H]2CCCN2C(=O)Nc2cccc(Cl)c2)n1Cc1ccc(Cl)cc1 [Compound 163]
12 | 50 to 500 nM | Cc1nnc([C@H]2CCCN2C(=O)N[C@H]2CCOc3cccc(F)c32)n1Cc1ccc(Cl)cc1 [Compound 164]
13 | 50 to 500 nM | Cc1nnc([C@H]2CCCN2C(=O)N[C@H]2CCOc3c(F)ccc(Cl)c32)n1Cc1ccc(Cl)cc1 [Compound 165]
14 | < 50 nM | CCc1nnc([C@H]2CCCN2C(=O)Nc2c(C)cc(C(F)(F)F)cc2C)n1Cc1ccc(Cl)cc1 [Compound 167]
15 | < 50 nM | Cc1nnc([C@H]2CCCN2C(=O)N[C@@H](C)c2ccc(Cl)c(Cl)c2)n1Cc1ccc(Cl)cc1 [Compound 168]
16 | < 50 nM | Cc1nnc([C@H]2CCCN2C(=O)N[C@H]2CCc3cc(C(F)(F)F)ccc32)n1Cc1ccc(Cl)cc1 [Compound 169]
17 | < 50 nM | Cc1nnc([C@H]2CCCN2C(=O)N[C@@H](C)c2ccc(Cl)cc2)n1Cc1ccc(Cl)cc1 [Compound 170]
18 | 50 to 500 nM | Cc1nnc([C@H]2CCCN2C(=O)N[C@H]2CCc3ccc(C(F)(F)F)cc32)n1Cc1ccc(Cl)cc1 [Compound 171]
19 | 50 to 500 nM | Cc1nnc([C@H]2CCCN2C(=O)N[C@H]2CCCc3ccccc32)n1Cc1ccc(Cl)cc1 [Compound 172]
20 | 50 to 500 nM | Cc1nnc([C@H]2CCCN2C(=O)Cc2ccc(C(F)(F)F)cc2)n1Cc1ccc(Cl)cc1 [Compound 173]
21 | 50 to 500 nM | Cc1nnc([C@H]2CCCN2C(=O)Cc2ccc(Cl)cc2)n1Cc1ccc(Cl)cc1 [Compound 174]
22 | 500 to 5000 nM | Cc1nnc([C@H]2CCCN2C(=O)Oc2ccc(Cl)cc2)n1Cc1ccc(Cl)cc1 [Compound 175]
23 | 500 to 5000 nM | Cc1nnc([C@H]2CCCN2C(=O)Oc2ccc(F)cc2)n1Cc1ccc(Cl)cc1 [Compound 176]

Row | IC50 | SMILES
24 | < 50 nM | Cc1nnc([C@H]2CCCN2C(=O)NC2CCCOc3cc(C(F)(F)F)ccc32)n1Cc1ccc(Cl)cc1 (stereo partly drawn) [Compound 177]
25 | < 50 nM | Cc1nc(Cl)c(NC(=O)N2CCC[C@@H]2c2nnc(C)n2Cc2ccc(Cl)cc2)c(Cl)n1 [Compound 178]
26 | < 50 nM | Cc1nnc([C@H]2CCCN2C(=O)NC(C)(C)c2ccccc2)n1Cc1ccc(Cl)cc1 [Compound 179]
27 | < 50 nM | Cc1nnc([C@H]2CCCN2C(=O)N[C@H](C)c2ccc(Cl)cc2)n1Cc1ccc(Cl)cc1 [Compound 180]
28 | < 50 nM | CC[C@H](NC(=O)N1CCC[C@@H]1c1nnc(C)n1Cc1ccc(Cl)cc1)c1ccccc1 [Compound 181]
29 | < 50 nM | Cc1nnc([C@H]2CCCN2C(=O)Nc2c(Cl)ncnc2N(C)C)n1Cc1ccc(Cl)cc1 [Compound 182]
30 | 50 to 500 nM | CCC(CC)NC(=O)N1CCC[C@@H]1c1nnc(C)n1Cc1ccc(Cl)cc1 [Compound 183]
31 | 50 to 500 nM | Cc1nnc([C@H]2CCCN2C(=O)N[C@@H](C)C2CCCCC2)n1Cc1ccc(Cl)cc1 [Compound 184]
32 | 50 to 500 nM | Cc1nnc([C@H]2CCCN2C(=O)NC2CCCCC2)n1Cc1ccc(Cl)cc1 [Compound 185]
33 | 50 to 500 nM | Cc1nnc([C@H]2CCCN2C(=O)NC2CCCCCC2)n1Cc1ccc(Cl)cc1 [Compound 186]
34 | < 50 nM | Cc1noc(-c2ccccc2)c1NC(=O)N1CCC[C@@H]1c1nnc(Cl)n1Cc1ccc(Cl)cc1 [Compound 187]
35 | < 50 nM | Cc1nc(Cl)nc(Cl)c1NC(=O)N1CCC[C@@H]1c1nnc(C)n1Cc1ccc(Cl)cc1 [Compound 188]
36 | < 50 nM | COC(=O)c1cccc(NC(=O)N2CCC[C@@H]2c2nnc(C)n2Cc2ccc(Cl)cc2)c1C [Compound 189]
37 | < 50 nM | Cc1cc(C(F)(F)F)ccc1NC(=O)N1CCC[C@@H]1c1nnc(C)n1Cc1ccc(Cl)cc1 [Compound 190]
38 | < 50 nM | CC[C@H](NC(=O)N1CCC[C@@H]1c1nnc(C)n1Cc1ccc(Cl)cc1)c1ccc(Cl)c(Cl)c1 [Compound 191]
39 | < 50 nM | Cc1nnc([C@H]2CCCN2C(=O)Nc2c(Cl)nc(N)nc2Cl)n1Cc1ccc(Cl)cc1 [Compound 192]
40 | < 50 nM | COC(=O)c1ccc(C)c(NC(=O)N2CCC[C@@H]2c2nnc(C)n2Cc2ccc(Cl)cc2)c1 [Compound 193]
41 | < 50 nM | O=C(N[C@H]1CCOc2cc(C(F)(F)F)ccc21)N1CCC[C@@H]1c1nnc(Cl)n1Cc1ccc(Cl)cc1 [Compound 194]
42 | < 50 nM | Cc1nnc([C@H]2CCCN2/C(=N\C#N)N[C@@H](C)c2cc3ccccc3o2)n1Cc1ccc(Cl)cc1 [Compound 195]
43 | < 50 nM | CC[C@H](N/C(=N/C#N)N1CCC[C@@H]1c1nnc(C)n1Cc1ccc(Cl)cc1)c1cc2ccccc2o1 [Compound 196]
44 | < 50 nM | Cc1nnc([C@H]2CCCN2C(=O)Nc2ccc(Br)cc2C(F)(F)F)n1Cc1ccc(Cl)cc1 [Compound 197]
45 | < 50 nM | Cc1cc(Cl)cc(C)c1N/C(=N/C#N)N1CCC[C@@H]1c1nnc(C)n1Cc1ccc(Cl)cc1 [Compound 198]
46 | < 50 nM | Cc1nnc([C@H]2CCCN2C(=O)N[C@H]2CCOc3c2cccc3C(F)(F)F)n1Cc1ccc(Cl)cc1 [Compound 199]

Row | IC50 | SMILES
47 | < 50 nM | Cc1noc(C)c1NC(=O)N1CCC[C@@H]1c1nnc(C)n1Cc1ccc(Cl)cc1 [Compound 200]
48 | < 50 nM | Cc1nnc([C@H]2CCCN2C(=O)Nc2c(Cl)ncnc2Cl)n1Cc1ccc(Cl)cc1 [Compound 201]
49 | < 50 nM | Cc1nnc([C@H]2CCCN2C(=O)NCc2ccc(Cl)cc2Cl)n1Cc1ccc(Cl)cc1 [Compound 202]
50 | < 50 nM | CCc1nnc([C@H]2CCCN2C(=O)Nc2c(C)noc2-c2ccccc2)n1Cc1ccc(Cl)cc1 [Compound 203]
51 | < 50 nM | Cc1nnc([C@H]2CCCN2C(=O)NC2(c3ccccc3)CC2)n1Cc1ccc(Cl)cc1 [Compound 204]
52 | < 50 nM | O=C(NCc1ccc(C(F)(F)F)cc1)N1CCC[C@@H]1c1nnc(Cl)n1Cc1ccc(Cl)cc1 [Compound 205]
53 | < 50 nM | Cc1cc(C)c(NC(=O)N2CCC[C@@H]2c2nnc(C)n2Cc2ccc(Cl)cc2)c(C(N)=O)c1 [Compound 206]
54 | < 50 nM | Cc1nnc([C@H]2CCCN2C(=O)N[C@H]2CCOc3cc(C#N)ccc32)n1Cc1ccc(Cl)cc1 [Compound 207]
55 | < 50 nM | Cc1ccc(C(=O)N(C)C)cc1NC(=O)N1CCC[C@@H]1c1nnc(C)n1Cc1ccc(Cl)cc1 [Compound 208]
56 | < 50 nM | CCc1nnc([C@H]2CCCN2C(=O)N[C@H]2CCOc3cc(C(F)(F)F)ccc32)n1Cc1ccc(Cl)cc1 [Compound 209]
57 | < 50 nM | CNC(=O)c1cc(C)cc(C)c1NC(=O)N1CCC[C@@H]1c1nnc(C)n1Cc1ccc(Cl)cc1 [Compound 210]
58 | < 50 nM | COC(=O)c1cc(C)cc(C)c1NC(=O)N1CCC[C@@H]1c1nnc(C)n1Cc1ccc(Cl)cc1 [Compound 211]
59 | < 50 nM | CNC(=O)c1cccc(C)c1NC(=O)N1CCC[C@@H]1c1nnc(C)n1Cc1ccc(Cl)cc1 [Compound 212]
60 | < 50 nM | Cc1nnc([C@H]2CCCN2C(=O)N[C@H](C)c2ccccc2)n1Cc1ccc(Cl)cc1 [Compound 213]
61 | < 50 nM | CC[C@H](NC(=O)N1CCC[C@@H]1c1nnc(C)n1Cc1ccc(Cl)cc1)c1c(C)noc1C [Compound 214]
62 | < 50 nM | COC(=O)c1ccc(NC(=O)N2CCC[C@@H]2c2nnc(C)n2Cc2ccc(Cl)cc2)c(C)c1 [Compound 215]
63 | < 50 nM | CNC(=O)c1ccc(C)c(NC(=O)N2CCC[C@@H]2c2nnc(C)n2Cc2ccc(Cl)cc2)c1 [Compound 216]
64 | < 50 nM | COC(=O)c1cccc(C)c1NC(=O)N1CCC[C@@H]1c1nnc(C)n1Cc1ccc(Cl)cc1 [Compound 217]
65 | < 50 nM | Cc1nnc([C@H]2CCCN2C(=O)N[C@@H](C)c2ccc(F)cc2)n1Cc1ccc(Cl)cc1 [Compound 218]
66 | < 50 nM | Cc1cccc(C(N)=O)c1NC(=O)N1CCC[C@@H]1c1nnc(C)n1Cc1ccc(Cl)cc1 [Compound 219]
67 | < 50 nM | Cc1nnc([C@H]2CCCN2C(=O)NC(C)(C)c2ccc(C(F)(F)F)cc2)n1Cc1ccc(Cl)cc1 [Compound 220]
68 | 50 to 500 nM | Cc1nnc([C@H]2CCCN2C(=O)NCc2ccc(C(F)(F)F)nc2)n1Cc1ccc(Cl)cc1 [Compound 221]
69 | 50 to 500 nM | Cc1onc(-c2ccccc2)c1N/C(=N/C#N)N1CCC[C@@H]1c1nnc(C)n1Cc1ccc(Cl)cc1 [Compound 222]
